Experimental data from US9670212B2, “Inhibitors of PI3K-delta and methods of their use and manufacture” (Exelixis, Inc., priority 2010, dated 2017).

Target: PI3K delta (Homo sapiens (Human), UniProt O00329)
Test: Luciferase-coupled chemiluminescence kinase assay (KinaseGlo, ATP consumption)
Assay type: biochemical
Protocol: Kinase activity and compound inhibition were investigated using one or more of the assay formats described below. The ATP concentrations used in the various assays were approximately equal to or less than the KM for each of the respective kinases. Dose-response experiments were performed using an intra-plate dilution scheme with 10 different inhibitor concentrations in a 384-well microtiter plate. […] Typically N should approximate unity. Curve fitting was performed using XLFit or ActivityBase. Luciferase-Coupled Chemiluminescence Assay Protocol
Kinase activity is measured as the percent of ATP consumed following the kinase reaction using luciferase-luciferin-coupled chemiluminescence. […] Kinase reactions were initiated by combining test compounds, kinase, and ATP in a 20 μL volume (6 μL volume for 1536-well plate). The reaction mixture was incubated at ambient temperature for 2 h. Following the kinase reaction, a 20 μL (or 3 μL for 1536-well plate) aliquot of KinaseGlo (Promega) was added and the chemiluminescence signal measured using an EnVision plate reader (Perkin Elmer).

Sequence of PI3K delta (O00329 whole entry): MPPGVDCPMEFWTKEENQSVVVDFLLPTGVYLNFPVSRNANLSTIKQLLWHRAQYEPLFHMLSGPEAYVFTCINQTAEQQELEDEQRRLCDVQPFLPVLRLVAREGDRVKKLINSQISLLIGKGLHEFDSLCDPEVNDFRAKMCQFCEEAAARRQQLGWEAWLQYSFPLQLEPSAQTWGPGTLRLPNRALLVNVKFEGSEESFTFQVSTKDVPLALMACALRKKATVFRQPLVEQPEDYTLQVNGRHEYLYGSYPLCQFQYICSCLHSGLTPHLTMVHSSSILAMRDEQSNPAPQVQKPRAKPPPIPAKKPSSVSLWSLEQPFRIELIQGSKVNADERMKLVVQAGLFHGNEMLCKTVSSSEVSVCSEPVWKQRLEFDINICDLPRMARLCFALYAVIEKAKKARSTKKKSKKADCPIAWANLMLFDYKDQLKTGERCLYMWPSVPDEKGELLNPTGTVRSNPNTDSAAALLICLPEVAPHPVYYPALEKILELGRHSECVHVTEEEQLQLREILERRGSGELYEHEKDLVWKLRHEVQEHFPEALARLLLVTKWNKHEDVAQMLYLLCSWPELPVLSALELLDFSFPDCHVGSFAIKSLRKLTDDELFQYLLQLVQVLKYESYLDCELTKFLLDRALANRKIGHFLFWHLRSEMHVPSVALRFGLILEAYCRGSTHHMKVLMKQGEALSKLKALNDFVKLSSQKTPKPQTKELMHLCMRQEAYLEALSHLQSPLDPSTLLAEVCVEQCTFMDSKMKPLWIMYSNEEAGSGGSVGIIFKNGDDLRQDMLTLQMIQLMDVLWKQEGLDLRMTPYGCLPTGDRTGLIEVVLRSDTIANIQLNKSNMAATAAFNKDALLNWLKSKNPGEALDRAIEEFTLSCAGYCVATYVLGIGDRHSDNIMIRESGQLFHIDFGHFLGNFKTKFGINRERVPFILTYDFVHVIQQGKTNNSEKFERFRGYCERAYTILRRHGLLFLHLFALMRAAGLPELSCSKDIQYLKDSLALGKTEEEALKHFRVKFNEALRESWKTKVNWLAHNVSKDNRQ
Sequence of PI3K delta (P27986 whole entry partner): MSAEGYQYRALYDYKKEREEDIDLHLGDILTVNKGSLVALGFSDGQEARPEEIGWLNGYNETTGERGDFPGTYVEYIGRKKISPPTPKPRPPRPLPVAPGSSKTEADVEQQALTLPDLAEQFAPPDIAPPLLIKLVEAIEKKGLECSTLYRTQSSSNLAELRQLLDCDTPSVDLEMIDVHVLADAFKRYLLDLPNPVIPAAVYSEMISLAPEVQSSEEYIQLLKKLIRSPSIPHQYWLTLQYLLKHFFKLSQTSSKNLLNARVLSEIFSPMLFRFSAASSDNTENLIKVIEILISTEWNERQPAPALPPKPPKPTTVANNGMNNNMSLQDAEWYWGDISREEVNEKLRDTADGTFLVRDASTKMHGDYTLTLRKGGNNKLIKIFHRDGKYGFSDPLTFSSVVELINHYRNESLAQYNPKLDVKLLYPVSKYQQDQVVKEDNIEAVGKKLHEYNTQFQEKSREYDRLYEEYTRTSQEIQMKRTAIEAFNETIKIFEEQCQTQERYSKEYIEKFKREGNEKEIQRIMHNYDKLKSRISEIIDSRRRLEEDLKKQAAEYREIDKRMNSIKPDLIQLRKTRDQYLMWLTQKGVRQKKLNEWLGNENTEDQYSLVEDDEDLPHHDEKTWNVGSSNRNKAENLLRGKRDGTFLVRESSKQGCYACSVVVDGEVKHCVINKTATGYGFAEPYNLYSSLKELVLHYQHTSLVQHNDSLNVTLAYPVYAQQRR

Row | Compound | IC50
1 | Cc1cccc2cc(CNC(=O)c3nccnc3N)c(N3CC(C)NC[C@H]3C)nc12 (stereo in doubt) [Compound 123, 3-amino-N-({2-[(2R,5S)-2,5-dimethylpiperazin-1-yl]-8-methylquinolin-3-yl}methyl)pyrazine-2-carboxamide] | 250 to 500 nM
2 | Cc1cccc2cc(CSc3ncnc4[nH]cnc34)c(N(C)CC3CCN(C)CC3)nc12 [Compound 1, N,8-dimethyl-N-[(1-methylpiperidin-4-yl)methyl]-3-[(9H-purin-6-ylthio)methyl]quinolin-2-amine] | 50 to 250 nM
3 | Cc1cccc2cc(Cn3cnc4c(N)ncnc43)c(N(C)CC3CCCN3C)nc12 (stereo not shown) [Compound 2, 3-[(6-amino-9H-purin-9-yl)methyl]-N,8-dimethyl-N-[(1-methylpyrrolidin-2-yl)methyl]quinolin-2-amine] | < 50 nM
4 | Cc1cccc2cc(Cn3cnc4c(N)ncnc43)c(N(C)CC3CCCCN3C)nc12 (stereo not shown) [Compound 3, 3-[(6-amino-9H-purin-9-yl)methyl]-N,8-dimethyl-N-[(1-methylpiperidin-2-yl)methyl]quinolin-2-amine] | < 50 nM
5 | Cc1cccc2cc(Cn3cnc4c(N)ncnc43)c(N(C)CC3CCN(C)CC3)nc12 [Compound 4, 3-[(6-amino-9H-purin-9-yl)methyl]-N,8-dimethyl-N-[(1-methylpiperidin-4-yl)methyl]quinolin-2-amine] | < 50 nM
6 | Cc1cccc2cc(CNc3cccc4c3OCCO4)c(-c3ccccc3Cl)nc12 [Compound 5] | 500 to 1500 nM
7 | COc1cccc(CNCc2cc3cccc(C)c3nc2-c2ccccc2Cl)c1 [Compound 6, 1-[2-(2-chlorophenyl)-8-methylquinolin-3-yl]-N-{[3-(methyloxy)phenyl]methyl}methanamine] | 500 to 1500 nM
8 | Cc1cccc2cc(COc3ccc4c(c3)OCO4)c(-c3ccccc3Cl)nc12 [Compound 8, 3-[(1,3-benzodioxol-5-yloxy)methyl]-2-(2-chlorophenyl)-8-methylquinoline] | 500 to 1500 nM
9 | COc1ccccc1NCc1cc2cccc(C)c2nc1-c1ccccc1Cl [Compound 11, N-{[2-(2-chlorophenyl)-8-methylquinolin-3-yl]methyl}-2-(methyloxy)aniline] | 500 to 1500 nM
10 | Cc1cccc2cc(CNc3ncnc4[nH]cnc34)c(N3CCN4CCCCC4C3)nc12 (stereo not shown) [Compound 12, N-{[8-methyl-2-(octahydro-2H-pyrido[1,2-a]pyrazin-2-yl)quinolin-3-yl]methyl}-9H-purin-6-amine] | < 50 nM
11 | Cc1cccc2cc(Cn3cnc4c(N)ncnc43)c(N3CCc4ccccc4C3)nc12 [Compound 14, 9-{[2-(3,4-dihydroisoquinolin-2(1H)-yl)-8-methylquinolin-3-yl]methyl}-9H-purin-6-amine] | 500 to 1500 nM
12 | COc1ccc(OCc2cc3cccc(C)c3nc2-c2ccccc2Cl)cc1 [Compound 16, 2-(2-chlorophenyl)-8-methyl-3-({[4-(methyloxy)phenyl]oxy}methyl)quinoline] | 500 to 1500 nM
13 | COc1ccc(OC(C)c2cc3cccc(C)c3nc2-c2ccccc2Cl)cc1 (stereo not shown) [Compound 17, 2-(2-chlorophenyl)-8-methyl-3-(1-{[4-(methyloxy)phenyl]oxy}ethyl)quinoline] | 500 to 1500 nM
14 | Cc1cccc2cc(CNc3ncnc4[nH]cnc34)c(N3CCc4ccccc4C3)nc12 [Compound 19, N-{[2-(3,4-dihydroisoquinolin-2(1H)-yl)-8-methylquinolin-3-yl]methyl}-9H-purin-6-amine] | 500 to 1500 nM
15 | CNCCN(C)c1nc2c(C)cccc2cc1CNc1ccc(OC)cc1 [Compound 20, N,N′-dimethyl-N-[8-methyl-3-({[4-(methyloxy)phenyl]amino}methyl)quinolin-2-yl]ethane-1,2-diamine] | 500 to 1500 nM
16 | CNCCN(C)c1nc2c(C)cccc2cc1CN1CCOCC1 [Compound 21, N,N′-dimethyl-N-[8-methyl-3-(morpholin-4-ylmethyl)quinolin-2-yl]ethane-1,2-diamine] | 500 to 1500 nM
17 | CNCCN(C)c1nc2c(C)cccc2cc1COc1ccc(OC)cc1 [Compound 23, N,N′-dimethyl-N-[8-methyl-3-({[4-(methyloxy)phenyl]oxy}methyl)quinolin-2-yl]ethane-1,2-diamine] | 500 to 1500 nM
18 | COCCN(C)c1nc2c(C)cccc2cc1CNc1ncnc2[nH]cnc12 [Compound 25, N,8-dimethyl-N-[2-(methyloxy)ethyl]-3-[(9H-purin-6-ylamino)methyl]quinolin-2-amine] | < 50 nM
19 | CCCCN(C)c1nc2c(C)cccc2cc1CNc1ncnc2[nH]cnc12 [Compound 26, N-butyl-N,8-dimethyl-3-[(9H-purin-6-ylamino)methyl]quinolin-2-amine] | 50 to 250 nM

Row | Compound | IC50
20 | Cc1cccc2cc(CNc3ncnc4[nH]cnc34)c(N3CCCCC3)nc12 [Compound 27, N-[(8-methyl-2-piperidin-1-ylquinolin-3-yl)methyl]-9H-purin-6-amine] | 50 to 250 nM
21 | Cc1cccc2cc(Cn3cnc4c(N)ncnc43)c(N(C)CCN(C)C(=O)Cn3cccn3)nc12 [Compound 28, N-{2-[{3-[(6-amino-9H-purin-9-yl)methyl]-8-methylquinolin-2-yl}(methyl)amino]ethyl}-N-methyl-2-(1H-pyrazol-1-yl)acetamide] | < 50 nM
22 | CNCCN(C)c1nc2c(C)cccc2cc1-c1nnc(-c2nccnc2N)o1 [Compound 29, N-{3-[5-(3-aminopyrazin-2-yl)-1,3,4-oxadiazol-2-yl]-8-methylquinolin-2-yl}-N,N′-dimethylethane-1,2-diamine] | 500 to 1500 nM
23 | Cc1cccc2cc(CNC(=O)c3nccnc3N)c(N(C)CC3CCCN(C)C3)nc12 (stereo not shown) [Compound 30, 3-amino-N-[(8-methyl-2-{methyl[(1-methylpiperidin-3-yl)methyl]amino}quinolin-3-yl)methyl]pyrazine-2-carboxamide] | < 50 nM
24 | Cc1cccc2cc(CNC(=O)c3nccnc3N)c(N(C)CC3CCN(C)CC3)nc12 [Compound 31, 3-amino-N-[(8-methyl-2-{methyl[(1-methylpiperidin-4-yl)methyl]amino}quinolin-3-yl)methyl]pyrazine-2-carboxamide] | < 50 nM
25 | Cc1cccc2cc(CNc3ncnc4[nH]cnc34)c(N(C)CC3CCCN(C)C3)nc12 (stereo not shown) [Compound 32, N,8-dimethyl-N-[(1-methylpiperidin-3-yl)methyl]-3-[(9H-purin-6-ylamino)methyl]quinolin-2-amine] | < 50 nM
26 | Cc1cccc2cc(CNc3ncnc4[nH]cnc34)c(N(C)CC3CCN(C)CC3)nc12 [Compound 33, N,8-dimethyl-N-[(1-methylpiperidin-4-yl)methyl]-3-[(9H-purin-6-ylamino)methyl]quinolin-2-amine] | < 50 nM
27 | Cc1cccc2cc(Cn3cnc4c(N)ncnc43)c(N(C)CCN(C)C(=O)Cn3ccnn3)nc12 [Compound 34, N-{2-[{3-[(6-amino-9H-purin-9-yl)methyl]-8-methylquinolin-2-yl}(methyl)amino]ethyl}-N-methyl-2-(1H-1,2,3-triazol-1-yl)acetamide] | < 50 nM
28 | Cc1cccc2cc(CNc3ncnc4[nH]cnc34)c(N(C)CCN(C)C(=O)Cn3ccnn3)nc12 [Compound 35, N-methyl-N-[2-(methyl{8-methyl-3-[(9H-purin-6-ylamino)methyl]quinolin-2-yl}amino)ethyl]-2-(1H-1,2,3-triazol-1-yl)acetamide] | < 50 nM
29 | CNCCN(C)c1nc2c(C)cccc2cc1CNc1ncnc2[nH]cnc12 [Compound 36, N,N′-dimethyl-N-{8-methyl-3-[(9H-purin-6-ylamino)methyl]quinolin-2-yl}ethane-1,2-diamine] | < 50 nM
30 | Cc1cccc2cc(CNc3ncnc4[nH]cnc34)c(N3CCNCC3)nc12 [Compound 37, N-[(8-methyl-2-piperazin-1-ylquinolin-3-yl)methyl]-9H-purin-6-amine] | < 50 nM
31 | Cc1cccc2cc(CNc3ncnc4[nH]cnc34)c(N(C)CC3CCCCN3C)nc12 (stereo not shown) [Compound 38, N,8-dimethyl-N-[(1-methylpiperidin-2-yl)methyl]-3-[(9H-purin-6-ylamino)methyl]quinolin-2-amine] | < 50 nM
32 | Cc1cccc2cc(CNC(=O)c3nccnc3N)c(N(C)CC3CCCCN3C)nc12 (stereo not shown) [Compound 39, 3-amino-N-[(8-methyl-2-{methyl[(1-methylpiperidin-2-yl)methyl]amino}quinolin-3-yl)methyl]pyrazine-2-carboxamide] | < 50 nM
33 | CNCCN(C)c1nc2c(C)cccc2cc1CNC(=O)C1(C(=O)NC)CC1 [Compound 40, N-methyl-N′-[(8-methyl-2-{methyl[2-(methylamino)ethyl]amino}quinolin-3-yl)methyl]cyclopropane-1,1-dicarboxamide] | 500 to 1500 nM
34 | CC(=O)N1CCN(c2nc3ccccc3nc2Nc2cccc(C(N)=O)c2)CC1 [Compound 41, 3-{[3-(4-acetylpiperazin-1-yl)quinoxalin-2-yl]amino}benzamide] | 500 to 1500 nM
35 | Cc1cccc2cc(CNC(=O)c3nccnc3N)c(N(C)CCN(C)C(=O)Cn3cnnn3)nc12 [Compound 42, 3-amino-N-{[8-methyl-2-(methyl{2-[methyl(1H-tetrazol-1-ylacetyl)amino]ethyl}amino)quinolin-3-yl]methyl}pyrazine-2-carboxamide] | < 50 nM
36 | Cc1nc(C)n(CC(=O)N(C)CCN(C)c2nc3c(C)cccc3cc2CNC(=O)c2nccnc2N)n1 [Compound 43, 3-amino-N-({2-[(2-{[(3,5-dimethyl-1H-1,2,4-triazol-1-yl)acetyl](methyl)amino}ethyl)(methyl)amino]-8-methylquinolin-3-yl}methyl)pyrazine-2-carboxamide] | < 50 nM
37 | Cc1cccc2cc(CNC(=O)c3nccnc3N)c(N3CCC(NCC(=O)N(C)C)C3)nc12 (stereo not shown) [Compound 44, 3-amino-N-{[2-(3-{[2-(dimethylamino)-2-oxoethyl]amino}pyrrolidin-1-yl)-8-methylquinolin-3-yl]methyl}pyrazine-2-carboxamide] | 500 to 1500 nM
